Results as given in US20100062995A1, “Transition state structure of human 5'methylthioadenosine phosphorylase” (priority 2006, published 2010).
Where “and” joins values, the source holds several entries; their conditions need not be identical. Equal values may be shown once. Marks after values point to notes of the source that are not given here. One block for each molecule: values may come before it.

Assays:
human MTAP [1] = target: T1, human MTAP (Homo sapiens, UniProt Q13126); settings: cited from earlier work; for kcat: human MTAP (Kung et al., 2005); for fold increase in Km relative to MTA: human MTAP
T1 construct: His6 (N); made in house; host or cells: E. coli (pQE32 vector)
T1 sequence (Q13126 1-283): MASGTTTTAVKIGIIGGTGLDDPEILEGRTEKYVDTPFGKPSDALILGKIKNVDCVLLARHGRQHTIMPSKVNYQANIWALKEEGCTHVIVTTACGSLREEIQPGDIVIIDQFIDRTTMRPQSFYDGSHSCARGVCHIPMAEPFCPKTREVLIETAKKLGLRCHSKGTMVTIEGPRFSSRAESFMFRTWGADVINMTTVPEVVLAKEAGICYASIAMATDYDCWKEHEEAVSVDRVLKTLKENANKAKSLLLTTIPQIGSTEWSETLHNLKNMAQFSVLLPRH

human MTAP [2] = target: T1, human MTAP; experiment: Kinetic analysis with substrate analogues (kcat, Km); type: biochemical
Excerpt: Kinetic analysis with substrate analogues provide additional evidence concerning the importance of the 3′-hydroxyl in catalysis (Kung et al., 2005). […] The formation of an oxyanion from ionization of the 3′-hydroxyl further stabilizes the positive charge at the anomeric carbon.

human MTAP [3] = target: T1, human MTAP; experiment: Measurement of kinetic isotope effects on arsenolysis of MTA; type: biochemical; settings: pH 7.5, arsenolysis of MTA; for KIE (experimental): corrected to 0% substrate depletion; for Intrinsic KIEs: observed KIE corrected for forward commitment
Procedure: Measurement of kinetic isotope effects. The KIEs were measured by mixing ^3H and ^14C labeled substrates with ^3H:^14C in 4:1 ratio. […] After 20-30% completion of the reaction, 750 μL of the reaction was resolved on charcoal-Sepharose (acid-washed powdered charcoal and Sepharose in 1:4 ratio made into a slurry in 1 mM 5-methylthioribose (MTR) and settled in Pasteur pipettes). The remainder of the reaction mixture was allowed to react to completion and then applied to the column. Columns were washed with 2 volumes of 1 mM MTR and radioactive methylthioribose was eluted with 6 volumes of 15 mM MTR containing 50% ethanol. Each 1.0 mL of eluate was mixed with 9.0 mL scintillation fluid and counted for at least 3 cycles at 10 minutes per cycle. The ^3H to ^14C ratio was determined for partial and complete reactions and the KIEs were corrected to 0% hydrolysis by the equation: […]
where f is the fraction of reaction progress and Rf and Ro are ratios of heavy to light isotope at partial and total completion of reaction, respectively.
Experimental kinetic isotope effects (KIEs) and commitment factors. […] To avoid kinetic complexity associated with the transition state analyses for reversible reactions, the KIEs for the human MTAP were measured on the physiologically irreversible reaction of arsenolysis. The products of arsenolysis are adenine and 5-methylthioribose 1-arsenate. Methylthioribose 1-arsenate is unstable and rapidly decomposes to form methylthioribose and arsenate.
Where ^T(V/K) is an observed tritium isotope effect, Cf is the forward commitment to catalysis. The intrinsic KIEs were obtained by correcting the observed KIEs (column 3, Table 1) for the forward commitment.

S. pneumoniae MTAN = S. pneumoniae MTAN (Streptococcus pneumoniae, UniProt Q8DQ16); settings: S. pneumoniae MTAN (Singh et al., 2005a); cited from earlier work
E. coli MTAN = E. coli MTAN (Escherichia coli, UniProt P0AF12); settings: E. coli MTAN (Singh et al., 2005a); cited from earlier work

Sequence of S. pneumoniae MTAN (Q8DQ16 entry or part of it): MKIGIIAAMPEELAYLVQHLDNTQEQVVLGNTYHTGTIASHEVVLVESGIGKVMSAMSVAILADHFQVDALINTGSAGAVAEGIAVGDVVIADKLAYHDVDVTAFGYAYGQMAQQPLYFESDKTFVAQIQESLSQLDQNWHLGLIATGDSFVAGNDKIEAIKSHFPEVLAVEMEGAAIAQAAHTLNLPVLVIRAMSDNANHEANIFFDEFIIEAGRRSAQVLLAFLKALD

- KIE (experimental) (human MTAP [3]): 1.025 ± 0.005^b
- Intrinsic KIEs (human MTAP [3]): 1.030 ± 0.005
- Intrinsic KIEs (human MTAP [3]; listed as 1′-^14C): 1.029
- Intrinsic KIEs (human MTAP [3]; listed as 1′-^14C MTA): 1.029
SMILES: CSC[C@H]1O[14C@@H](n2cnc3c(N)ncnc32)[C@H](O)[C@@H]1O [[1′-^14C], [1′-^14C]MTA]

- KIE (experimental) (human MTAP [3]): 1.063 ± 0.003
- Intrinsic KIEs (human MTAP [3]): 1.076 ± 0.003
- Intrinsic KIEs (human MTAP [3]; listed as 2′-^3H): 1.076
SMILES: [3H][C@@]1(O)[C@H](O)[C@@H](CSC)O[C@H]1n1cnc2c(N)ncnc21 [[2′-^3H], [2′-^3H]MTA]

- KIE (experimental) (human MTAP [3]): 1.038 ± 0.001
- Intrinsic KIEs (human MTAP [3]): 1.046 ± 0.001
- Intrinsic KIEs (human MTAP [3]; listed as [5′-^3H2] MTA): 1.046
SMILES: [3H]C([3H])(SC)[C@H]1O[C@@H](n2cnc3c(N)ncnc32)[C@H](O)[C@@H]1O [[5′-^3H], [5′-^3H]MTA]

- KIE (experimental) (human MTAP [3]): 1.031 ± 0.002^c
- Intrinsic KIEs (human MTAP [3]): 1.037 ± 0.002
- Intrinsic KIEs (human MTAP [3]; listed as 9-^15N): 1.037 and 1.036
- Intrinsic KIEs (human MTAP [3]; listed as 9-^15N MTA): 1.037
- Intrinsic KIEs (human MTAP [3]; listed as 15N9): 1.036
SMILES: CS[14CH2][C@H]1O[C@@H]([15n]2cnc3c(N)ncnc32)[C@H](O)[C@@H]1O [[9-^15N/5′-^14C]]

- KIE (experimental) (human MTAP [3]): 1.073 ± 0.002
- Intrinsic KIEs (human MTAP [3]): 1.086 ± 0.002
- Intrinsic KIEs (human MTAP [3]; listed as [Me-^3H3] MTA): 1.086
SMILES: [3H]C([3H])([3H])SC[C@H]1O[C@@H](n2cnc3c(N)ncnc32)[C@H](O)[C@@H]1O [[Me-^3H], [methyl-^3H3]MTA]

The remaining lines, values behind:

SMILES: CSC[C@H]1O[C@@H](n2cnc3c(N)ncnc32)C[C@@H]1O [2′-deoxy MTA]
- kcat (human MTAP [1]): 0.28 s⁻¹
- fold increase in Km relative to MTA (human MTAP [1]): ~2 fold

SMILES: CSC[C@@H]1C[C@@H](O)[C@H](n2cnc3c(N)ncnc32)O1 [3′-deoxy MTA]
- fold decrease in kcat relative to MTA (human MTAP [2]): ~1000 fold
- kcat (human MTAP [1]): 0.004 s⁻¹
- fold increase in Km relative to MTA (human MTAP [1]): ~2 fold

SMILES: [3H]C1(n2cnc3c(N)ncnc32)OC(CSC)C(O)C1O (stereo not shown) [[1′-^3H], [1′-^3H]MTA]
- KIE (experimental) (human MTAP [3]): 1.290 ± 0.003
- Intrinsic KIEs (human MTAP [3]): 1.350 ± 0.003
- Intrinsic KIEs (human MTAP [3]; listed as 1′-^3H): 1.35

SMILES: [3H][C@]1(CSC)O[C@@H](n2cnc3c(N)ncnc32)[C@H](O)[C@@H]1O [[4′-^3H], [4′-^3H]MTA]
- KIE (experimental) (human MTAP [3]): 1.037 ± 0.005
- Intrinsic KIEs (human MTAP [3]): 1.045 ± 0.005
- Intrinsic KIEs (human MTAP [3]; listed as 4′-^3H): 1.045
- intrinsic 4′-^3H KIE (S. pneumoniae MTAN): 1.015
- intrinsic 4′-^3H KIE (E. coli MTAN): 1.010
